The structures appear in SMILES notation.

What all share (format): in vivo
Assay [1] concerns Septoria tritici. In words: Test A: wheat leaf blotch, preventive spray on wheat seedlings. The conditions noted are these: Zymoseptoria tritici, 456 h, 100 = 100% disease control, 0 = no control, read-out: Test A disease control rating. From the text: (§1) General protocol for preparing test suspensions for Tests A-F: the test compounds were first dissolved in acetone in an amount equal to 3% of the final volume and then suspended at the desired concentration (in ppm) in acetone and purified water (50/50 mix by volume) containing 250 ppm of the surfactant PEG400 (polyhydric alcohol esters). The resulting test suspensions were then used in Tests A-F.
The test solution was sprayed to the point of run-off on wheat seedlings. The following day the seedlings were inoculated with a spore suspension of Septoria tritici (the causal agent of wheat leaf blotch) and incubated in a saturated atmosphere at 24° C. for 48 h, and then moved to a growth chamber at 20° C. for 17 days, after which time disease ratings were made.
(§2) A rating of 100 indicates 100% disease control and a rating of 0 indicates no disease control (relative to the controls). A dash (−) indicates the compound was not tested.

Assay [2] relates to Puccinia recondita f. sp. tritici. The assay is described as follows: Test B: wheat leaf rust, preventive spray on wheat seedlings. The note with it: 192 h, 100 = 100% disease control, 0 = no control, read-out: Test B disease control rating.
Excerpt: as §1
The test solution was sprayed to the point of run-off on wheat seedlings. The following day the seedlings were inoculated with a spore suspension of Puccinia recondita f. sp. tritici (the causal agent of wheat leaf rust) and incubated in a saturated atmosphere at 20° C. for 24 h, and then moved to a growth chamber at 20° C. for 7 days, after which time disease ratings were made.
as §2

For assay [3], the system named is Phakopsora pachyrhizi. In words: Test D: Asian soybean rust, preventive spray on soybean seedlings. The conditions noted are these: 216 h, 100 = 100% disease control, 0 = no control, read-out: Test D disease control rating.
Excerpt: as §1
The test solution was sprayed to the point of run-off on soybean seedlings. The following day the seedlings were inoculated with a spore suspension of Phakopsora pachyrhizi (the causal agent of Asian soybean rust) and incubated in a saturated atmosphere at 22° C. for 24 h and then moved to a growth chamber at 22° C. for 8 days, after which time visual disease ratings were made.
as §2

The test system of assay [4] is Botrytis cinerea. In words: Test E: tomato Botrytis, preventive spray on tomato seedlings. The note with it: 120 h, 100 = 100% disease control, 0 = no control, read-out: Test E disease control rating.
Excerpt: as §1
The test suspension was sprayed to the point of run-off on tomato seedlings. The following day the seedlings were inoculated with a spore suspension of Botrytis cinerea (the causal agent of tomato Botrytis) and incubated in a saturated atmosphere at 20° C. for 48 h, and then moved to a growth chamber at 24° C. for 3 days, after which time visual disease ratings were made.
as §2

In assay [5] the test system is Alternaria solani. The assay is described as follows: Test F: tomato early blight, preventive spray on tomato seedlings. The conditions noted are these: 120 h, 100 = 100% disease control, 0 = no control, read-out: Test F disease control rating.
Excerpt: as §1
The test suspension was sprayed to the point of run-off on tomato seedlings. The following day the seedlings were inoculated with a spore suspension of Alternaria solani (the causal agent of tomato early blight) and incubated in a saturated atmosphere at 27° C. for 48 h, and then moved to a growth chamber at 20° C. for 3 days, after which time visual disease ratings were made.
as §2

`Cc1nn(C)c(Nc2c(F)cccc2[N+](=O)[O-])c1-c1c(F)cc(F)cc1Br` [Compound 1, 4-(2-bromo-4,6-difluorophenyl)-N-(2-fluoro-6-nitrophenyl)-1,3-dimethyl-1H-pyrazol-5-amine]: the pest or weed control at 50 ppm in assay [1] came out at 100%; in assay [2] it was 100%; in assay [3], 84%; in assay [4], 100%; in assay [5], 99%.

Take `Cc1nn(C)c(Nc2c(Cl)cc(F)cc2[N+](=O)[O-])c1-c1ccc(C#N)cc1Cl` [Compound 18, 3-chloro-4-[5-[(2-chloro-4-fluoro-6-nitrophenyl)amino]-1,3-dimethyl-1H-pyrazol-4-yl]benzonitrile]: the pest or weed control at 50 ppm in assay [1] was found to be 100%; in assay [2] it was 100%; in assay [3], 92%; in assay [4] it was 100%; in assay [5], 99%.

In the case of `Cc1nn(C)c(Nc2c(Cl)cc(F)cc2[N+](=O)[O-])c1-c1ccc(F)cc1Cl` [Compound 19, N-(2-chloro-4-fluoro-6-nitrophenyl)-4-(2-chloro-4-fluorophenyl)-1,3-dimethyl-1H-pyrazol-5-amine], the pest or weed control at 50 ppm in assay [1] is 100%; in assay [2] it was 100%; in assay [3], 98%; in assay [4], 100%; in assay [5], 99%.

`COc1cc(F)c(Nc2c(-c3c(F)cccc3Cl)c(C)nn2C)c([N+](=O)[O-])c1` [Compound 23, 4-(2-chloro-6-fluorophenyl)-N-(2-fluoro-4-methoxy-6-nitrophenyl)-1,3-dimethyl-1H-pyrazol-5-amine]: the pest or weed control at 50 ppm in assay [1] amounted to 100%; in assay [2] it was 100%; in assay [3], 99%; in assay [4], 97%; in assay [5] it was 99%.

Regarding `COc1cc(F)c(Nc2c(-c3ccc(F)cc3F)c(C)nn2C)c([N+](=O)[O-])c1` [Compound 57, 4-(2,4-difluorophenyl)-N-(2-fluoro-4-methoxy-6-nitrophenyl)-1,3-dimethyl-1H-pyrazol-5-amine], the pest or weed control at 50 ppm in assay [1] was found to be 100%; in assay [2], 100%; in assay [3] it was 96%; in assay [4], 100%; in assay [5], 100%.

For `Cc1nn(C)c(Nc2c(F)cccc2[N+](=O)[O-])c1-c1ccc(F)cc1Br` [Compound 60, 4-(2-bromo-4-fluorophenyl)-N-(2-fluoro-6-nitrophenyl)-1,3-dimethyl-1H-pyrazol-5-amine], the pest or weed control at 10 ppm in assay [1] was 99%; in assay [2], 100%; in assay [3], 0%; in assay [4] it was 99%; in assay [5], 75%. Besides, the pest or weed control at 50 ppm is 100% in assay [1]; 100% in assay [2]; 97% in assay [3]; 99% in assay [4]; 99% in assay [5].

For `Cc1nn(C)c(Nc2c(F)cc(Br)cc2[N+](=O)[O-])c1-c1ccc(F)cc1Cl` [Compound 61, N-(4-bromo-2-fluoro-6-nitrophenyl)-4-(2-chloro-4-fluorophenyl)-1,3-dimethyl-1H-pyrazol-5-amine], the pest or weed control at 50 ppm in assay [1] stood at 100%; in assay [2], 100%; in assay [3], 84%; in assay [4], 99%; in assay [5], 99%.

Turning to `Cc1nn(C)c(Nc2c(F)cccc2[N+](=O)[O-])c1-c1c(F)cc(F)cc1Cl` [Compound 68, 4-(2-chloro-4,6-difluorophenyl)-N-(2-fluoro-6-nitrophenyl)-1,3-dimethyl-1H-pyrazol-5-amine], the pest or weed control at 10 ppm in assay [1] turned out to be 100%; in assay [2], 100%; in assay [3], 32%; in assay [4], 100%; in assay [5], 98%. The pest or weed control at 50 ppm is 100% in assay [1]; 100% in assay [2]; 99% in assay [3]; 100% in assay [4]; 99% in assay [5].

`CCc1nn(C)c(Nc2c(F)cccc2[N+](=O)[O-])c1-c1ccc(F)cc1Cl` [Compound 72, 4-(2-chloro-4-fluorophenyl)-N-(2-fluoro-6-nitrophenyl)-3-ethyl-1-methyl-1H-pyrazol-5-amine]: the pest or weed control at 10 ppm in assay [1] is 100%; in assay [2], 85%; in assay [3], 12%; in assay [4], 98%; in assay [5], 63%. Further, the pest or weed control at 50 ppm in assay [1] was determined as 100%; in assay [2] it was 100%; in assay [3], 31%; in assay [4], 98%; in assay [5], 99%.

Consider `COc1ccc(-c2c(C)nn(C)c2Nc2c(Cl)cc(F)cc2[N+](=O)[O-])c(Cl)c1` [Compound 73, N-(2-chloro-4-fluoro-6-nitrophenyl)-4-(2-chloro-4-methoxyphenyl)-1,3-dimethyl-1H-pyrazol-5-amine], for which the pest or weed control at 50 ppm in assay [1] was found to be 100%; in assay [2] it was 100%; in assay [3] it was 98%; in assay [4], 99%; in assay [5], 97%.

As for `Cc1cc(F)c(Nc2c(-c3ccc(F)cc3Cl)c(C)nn2C)c([N+](=O)[O-])c1` [Compound 93, 4-(2-chloro-4-fluorophenyl)-N-(2-fluoro-4-methyl-6-nitrophenyl)-1,3-dimethyl-1H-pyrazol-5-amine], the pest or weed control at 10 ppm in assay [1] was determined as 99%; in assay [2], 100%; in assay [3], 87%; in assay [4], 99%; in assay [5], 99%. Also, the pest or weed control at 50 ppm was found to be 100% in assay [1]; 100% in assay [2]; 100% in assay [3]; 100% in assay [4]; 99% in assay [5].

Regarding `Cc1nn(C)c(Nc2ccc(F)cc2[N+](=O)[O-])c1-c1ccc(F)cc1Cl` [Compound 111, 4-(2-chloro-4-fluorophenyl)-N-(4-fluoro-2-nitrophenyl)-1,3-dimethyl-1H-pyrazol-5-amine], the pest or weed control at 50 ppm is 100% in assay [1]; 99% in assay [2]; 0% in assay [3]; 100% in assay [4]; 93% in assay [5].

Turning to `Cc1nn(C)c(Nc2c(F)cccc2[N+](=O)[O-])c1-c1ccc(C#N)cc1Cl` [Compound 113, 3-chloro-4-[5-[(2-fluoro-6-nitrophenyl)amino]-1,3-dimethyl-1H-pyrazol-4-yl]benzonitrile], the pest or weed control at 50 ppm in assay [1] was 100%; in assay [2] it was 99%; in assay [3], 13%; in assay [4], 99%; in assay [5], 99%.
